For 25 molecules, IC50 results are on record in patent US11993591B2, “Chromen-4-one derivatives for the treatment and prophylaxis of hepatitis B virus disease” (Hoffmann-La Roche Inc., priority 2018, dated 2024).

SMILES strings stand for the structures.

The first experiment deals with HBV (extracellular HBsAg) in primary human hepatocytes. The experiment in a line: Cryopreserved Primary Human Hepatocytes (PHH) HBV infection assay. Type of experiment: cell-based. The settings on record: Hepatitis B virus, Hepatocyte, 216 h; extracellular HBsAg (CLIA), HBV-infected cryopreserved PHH, 9 days post-compound treatment. How it is done: This assay is used to confirm the anti-HBV effect of the compounds in HBV PHH infection assay. Cryopreserved PHH (BioreclamationIVT, Lot YJM) was thawed at 37° C. and gently transferred into pre-warmed InVitroGRO HT medium (BioreclamationIVT, Cat. S03317).
The mixture was centrifuged at 70 relative centrifugal force (RCF) for 3 mins at RT, and the supernatant was discarded. Pre-warmed InVitroGRO CP medium (BioreclamationIVT, Cat #S03316) was added to the cell pellet to gently re-suspend cells. The cells were seeded at the density of 5.8×10^4 cells per well to collagen I coated 96-well plate (Gibco, Cat. A1142803) with the InVitroGRO CP medium. All plates were incubated at 37° C. with 5% CO2 and 85% humidity.
At 20 hours after plating, the medium was changed to PHH culture medium (Dulbecco's Modified Eagle Medium (DMEM)/F12 (1:1) (Gibco, Cat. 11320-033), 10% fetal bovine serum (Gibco Cat. 10099141), 100 U/mL penicillin, 100 μg/mL streptomycin (Gibco, Cat. 151401-122), […] (Invitrogen Cat. PHG0311L), 20 ng/mL dexamethasone (Sigma, Cat. D4902) and 250 ng/mL human recombinant insulin (Gibco, Cat. 12585-014)). And the cells were incubated at 37° C. with 5% CO2 and 85% humidity for 4 hours. The medium was then changed to pre-warmed PHH culture medium containing 4% polyethylene glycol (PEG) MW8000 (Sigma, Cat. P1458-50ML) and 1% DMSO (Sigma, Cat. D2650). 5.8×10^6 genomic equivalents of HBV were added into the medium.
At 24 hours post-infection, the cells were gently washed with PBS and refreshed with PHH culture medium supplemented with 1% DMSO, and 0.25 mg/mL Matrix gel (Corning, Cat. 356237) at 200 μL per well. All plates were immediately placed in at 37° C. CO2 incubator. 24 hours later, serial dilutions of compounds made with DMSO were further diluted with the same culture medium (PHH culture medium supplemented with 1% DMSO and 0.25 mg/mL Matrix gel as described above) before they were added to the cells to reach desired final compound concentrations and 1% DMSO concentration. The medium containing the compounds were refreshed every three days.
At 9 days post-compound treatment, extracellular HBsAg level were measured with Chemiluminescence Immuno Assay (CLIA) kit (Autobio, HBsAg Quantitative CLIA). Extracellular HBV DNA was extracted by MagNA Pure 96 system (Roche) and then determined by quantitative PCR with the following primers and probe: […]
HBsAg IC50 and HBV DNA IC50 values were derived from the dose-response curve using 4 parameter logistic curve fit method.
The IC50 is the concentration needed to halve the response being measured. In turn, `O=C(c1cc(=O)c2cccc(Cl)c2o1)N1CCc2ccc(Cl)cc2C1` [Example 16, 8-Chloro-2-(7-chloro-3,4-dihydro-1H-isoquinoline-2-carbonyl)chromen-4-one] registered an IC50 of 40.3 µM.

On to `O=C(O)c1cccc(CN2CCN(c3cc(=O)c4cccc(Cl)c4o3)CC2)c1` [Example 38, 3-((4-(8-chloro-4-oxo-chromen-2-yl)piperazin-1-yl)methyl)benzoic Acid], for which 38.5 µM corresponded to half-maximal inhibition (IC50).

Take `O=C(O)C1CC(OCCOc2ccc3c(c2)CCN(c2cc(=O)c4cccc(Cl)c4o2)C3)C1` (stereo not shown) [Example 36, 3-[2-[[2-(8-chloro-4-oxo-chromen-2-yl)-3,4-dihydro-1H-isoquinolin-6-yl]oxy]ethoxy]cyclobutanecarboxylic Acid]: the IC50 came to 0.61 µM.

`Cc1cc(C(=O)O)ccc1NC(=O)c1cc(=O)c2cccc(Cl)c2o1` [Example 18, 4-(8-chloro-4-oxo-chromene-2-carboxamido)-3-methylbenzoic Acid] registered an IC50 of 43 µM.

As to `O=C(O)C1CC(OCCOc2ccc3c(c2)CN(c2cc(=O)c4cccc(Cl)c4o2)C3)C1` (stereo not shown) [Example 37, 3-[2-[2-(8-chloro-4-oxo-chromen-2-yl)isoindolin-5-yl]oxyethoxy]cyclobutanecarboxylic Acid], the IC50 is 1.06 µM. Against the preceding molecule, the IC50 is about 41-fold lower.

`O=C(NCc1ccc(Cl)cc1Cl)c1cc(=O)c2cccc(Cl)c2o1` [Example 9, 8-chloro-N-(2,4-dichlorobenzyl)-4-oxo-chromene-2-carboxamide] displayed an IC50 of 14.1 µM.

`Cc1cc(Br)cnc1NC(=O)c1cc(=O)c2cccc(Cl)c2o1` [Example 10, N-(5-bromo-3-methylpyridin-2-yl)-8-chloro-4-oxo-chromene-2-carboxamide] came in with an IC50 of 24.3 µM.

On to `COc1ccc2c(c1)CCN(C(=O)c1cc(=O)c3cccc(Cl)c3o1)C2` [Example 14, 8-Chloro-2-(6-methoxy-3,4-dihydro-1H-isoquinoline-2-carbonyl)chromen-4-one], for which the IC50 is 36.3 µM. The IC50 values of the last two molecules are within 1.5-fold of each other.

`O=C(Nc1ccc(OCCOC2CC(C(=O)O)C2)cc1C(F)(F)F)c1cc(=O)c2cccc(Cl)c2o1` (stereo not shown) [Example 5, 3-(2-(4-(8-chloro-4-oxo-chromene-2-carboxamido)-3-(trifluoromethyl)phenoxy)ethoxy)cyclobutanecarboxylic Acid] showed an IC50 of 7.42 µM.

In the case of `O=C(Nc1nnc(C(F)(F)F)s1)c1cc(=O)c2cccc(Cl)c2o1` [Example 6, 8-chloro-4-oxo-N-(5-(trifluoromethyl)-1,3,4-thiadiazol-2-yl)-chromene-2-carboxamide], half-maximal inhibition (IC50) was put at 9.53 µM.

As for `O=C(O)COCCOC1CC2CCC(C1)N2c1cc(=O)c2cccc(Cl)c2o1` (stereo not shown) [Example 39, 2-(2-((8-(8-chloro-4-oxo-chromen-2-yl)-8-azabicyclo[3.2.1]octan-3-yl)oxy)ethoxy)acetic Acid], the IC50 was 38.5 µM.

`CC1c2ccc(OCCOC3CC(C(=O)O)C3)cc2CCN1c1cc(=O)c2cccc(Cl)c2o1` (stereo not shown) [Example 40, 3-[2-[[2-(8-chloro-4-oxo-chromen-2-yl)-1-methyl-3,4-dihydro-1H-isoquinolin-6-yl]oxy]ethoxy]cyclobutanecarboxylic Acid] gave an IC50 of 34.6 µM.

For the molecule `Cc1ccccc1NC(=O)c1cc(=O)c2cccc(Cl)c2o1` [Example 15, 8-chloro-4-oxo-N-(o-tolyl)-chromene-2-carboxamide], the IC50 was 37.6 µM. The IC50 values of the last two molecules are within 1.5-fold of each other.

`O=C(Nc1ccc(OCCOC2CC(C(=O)O)C2)cc1F)c1cc(=O)c2cccc(Cl)c2o1` (stereo not shown) [Example 1, 3-(2-(4-(8-chloro-4-oxo-chromene-2-carboxamido)-3-fluorophenoxy)ethoxy)cyclobutanecarboxylic Acid]: the midpoint of inhibition, the IC50, lay at 2.86 µM.

Regarding `Cc1cc(OCCOCC(=O)O)ccc1NC(=O)c1cc(=O)c2cccc(Cl)c2o1` [Example 19, 2-(2-(4-(8-chloro-4-oxo-chromene-2-carboxamido)-3-methylphenoxy)ethoxy)acetic Acid], 31.6 µM corresponded to half-maximal inhibition (IC50).

For a further experiment, the system named is HBV cccDNA (HBeAg level) in HepDES19 cells. As to the kind of experiment: Engineered HepDES19 primary screen assay (HBeAg as surrogate marker for cccDNA). In kind it is cell-based. The settings on record: Hepatitis B virus, HepDES19, 120 h. An excerpt: The assay was employed to screen for novel cccDNA inhibitors. HepDES19 is a cccDNA-producing cell line. In this cell line, HBeAg in the cell culture supernatant as surrogate marker, as HBeAg production depends on cccDNA level and activity. HepDES19 is an engineered cell line which contains a 1.1 unit length HBV genome, and pgRNA transcription from the transgene is controlled by Tetracycline (Tet). In the absence of Tet, pgRNA transcription will be induced, but HBV e antigen (HBeAg) could not be produced from this pgRNA due to very short leader sequence before the HBeAg start codon and the start codon is disrupted. Only after cccDNA is formed, the missing leader sequence and start codon mutation would be restored from the 3′-terminal redundancy of pgRNA, and then HBeAg could be synthesized. Therefore, HBeAg could be used as a surrogate marker for cccDNA (Zhou, T. et al., Antiviral Res. (2006), 72(2), 116-124; Guo, H. et al., J. Virol. (2007), 81(22), 12472-12484).
HepDES19 cells were seeded at 2×10^6 cells per T150 flask and cultured with the culture medium (Dulbecco's Modified Eagle Medium: Nutrient Mixture F-12 [DMEM-F12, Gibco Cat. 11320-82], 10% Fetal Bovine Serum [FBS, Clontech Cat. 631101], 0.1 mM Non-Essential Amino Acids Solution [NEAA, Gibco Cat. 11140-050], 50 μg/mL Penicillin-Streptomycin [PS, Invitrogen Cat. 15140-163], 500 μg/mL Geneticin [G418, Invitrogen Cat. 10131-027]) containing 3 μg/mL Tet (Sigma, Cat. 87128) for 5 days. Cells were then seeded at 4×10^6 cells per T150 in the same culture medium as described above in the absence of Tet for 8 days. Cells were then harvested and frozen at density of 2×10^6 cells per mL. For compound testing, the frozen cells were thawed and seeded into 96-well plates at a density of 6×10^4 cells per well. At 24 hours after seeding, half log serial dilutions of compounds made with Dimethyl sulfoxide (DMSO, Sigma, Cat. D2650) were further diluted with the same culture medium as described above before they were added to the cells to reach desired final compound concentrations and 1% DMSO concentration. Plates were then incubated at 37° C. for another 5 days before measurement of HBeAg level and cell viability. Intracellular HBeAg level were measured with enzyme-linked immunosorbent assay (ELISA) kit (Shanghai Kehua Diagnostic Medical Products Co., Ltd). Cell viability was assessed using Cell Counting Kit-8 (Donjindo, Cat. CK04-20). IC50 values were derived from the dose-response curve using 4 parameter logistic curve fit method.
The compounds of the present invention were tested for their capacity to inhibit extracellular HBeAg level as described herein.
As to `O=c1cc(-n2ccc(OCc3ccccc3)cc2=O)oc2c(Cl)cccc12` [Example 59, 4-(benzyloxy)-1-(8-chloro-4-oxo-chromen-2-yl)pyridin-2(1H)-one], the 50% inhibitory concentration (IC50) was 24.4 µM.

The molecule `CC(C)(C)OC(=O)N1CC2(C1)CN(c1cc(=O)c3cccc(Cl)c3o1)C2` [Example 62, Tert-butyl 6-(8-chloro-4-oxo-chromen-2-yl)-2,6-diazaspiro[3.3]heptane-2-carboxylate] yielded an IC50 of 33.2 µM.

As for `COC(=O)c1cccc(N2CCN(c3cc(=O)c4cccc(Cl)c4o3)CC2)c1` [Example 53, Methyl 3-(4-(8-chloro-4-oxo-chromen-2-yl)piperazin-1-yl)benzoate], the IC50 was 15 µM. This IC50 lies about 2.2-fold lower than the previous one.

`COc1ccc2c(c1)CN(c1cc(=O)c3cccc(Cl)c3o1)C2=O` [Example 43, 2-(8-chloro-4-oxo-chromen-2-yl)-5-methoxyisoindolin-1-one] displayed an IC50 of 4.78 µM. This IC50 is about 3.1-fold lower than that of the molecule before.

Turning to `O=c1cc(N2C3CCC2CC(O)C3)oc2c(Cl)cccc12` (stereo not shown) [Example 51, 8-chloro-2-(3-hydroxy-8-azabicyclo[3.2.1]octan-8-yl)-chromen-4-one], it took 14.8 µM to reach half-maximal inhibition (IC50). Compared with the last molecule, the IC50 is about 3.1-fold higher.

`CC(NC(=O)c1cc(=O)c2cccc(Cl)c2o1)c1ccc(Br)cc1` (stereo not shown) [Example 29, N-(1-(4-bromophenyl)ethyl)-8-chloro-4-oxo-chromene-2-carboxamide] returned an IC50 of 24.9 µM.

Turning to `O=C(Nc1ccc(Cl)cc1OCCOC1CC(C(=O)O)C1)c1cc(=O)c2cccc(Cl)c2o1` (stereo not shown) [Example 34, 3-(2-(5-chloro-2-(8-chloro-4-oxo-chromene-2-carboxamido)phenoxy)ethoxy)cyclobutane-1-carboxylic Acid], the IC50 is 44.6 µM.

As to `Cc1cc(NC(=O)c2cc(=O)c3cccc(Cl)c3o2)ncc1Br` [Example 23, N-(5-bromo-4-methylpyridin-2-yl)-8-chloro-4-oxo-chromene-2-carboxamide], the 50% inhibitory concentration (IC50) was 11.9 µM.

On to `COc1ccc2c(c1)C(=O)N(c1cc(=O)c3cccc(Cl)c3o1)CC2` [Example 65, 2-(8-chloro-4-oxo-chromen-2-yl)-7-methoxy-3,4-dihydroisoquinolin-1-one], for which it took 37.6 µM to reach half-maximal inhibition (IC50).

In the case of `O=c1c(I)c(-n2ccc(OCc3ccccc3)cc2=O)oc2c(Cl)cccc12` [Example 46, 4-benzyloxy-1-(8-chloro-3-iodo-4-oxo-chromen-2-yl)pyridin-2-one], the IC50 turned out to be 9.66 µM.
